Experimental findings from PubChem BioAssay AID179 (DTP/NCI, 2004) are described below.

This test relates to CEM cells HIV-1 protection, formazan growth assay. Kind of test: NCI AIDS Antiviral Assay. The following applies: for IC50: measured here: growth of uninfected CEM cells. The procedure, abridged: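 Human CEM cells, uninfected and HIV-1-infected, received five drug concentrations, and growth was read by soluble formazan assay. Compounds giving at least 50% protection were retested; reproducible 100% protection defined confirmed active.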

SMILES strings stand for the structures. Calls of active or inactive are those of the source.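 How the source made its calls: active means compounds giving half or more protection of infected cells from virus-caused growth loss, again on retest; inactive means the rest.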 Where a SMILES comes first, the peptide text is derived from it. The star is where a group is joined. Fmoc = O=C(OCC1c2ccccc2-c2ccccc21)*; Boc = CC(C)(C)OC(=O)*

With `O=C1c2scc(-c3ccccc3)c2-n2cccc21`, the EC50 was over 200 µM and the IC50 worked out at 17.8 µM. Taken in the same sequence, the figures for `COc1ccc(/C=C(/C(=O)c2ccc(Cl)cc2)N2C=CC=CC2=C(C#N)C#N)cc1OC` were over 20 µM and 0.117 µM. In the case of `c1ccc(P2c3ccccc3Nc3ccccc32)cc1`, the EC50 is over 200 µM and the IC50 came to 61.7 µM. Taken in the same sequence, the figures for `C(CCCCc1nnc(N2CCOCC2)o1)CCCc1nnc(N2CCOCC2)o1` were over 200 µM and 107 µM.

Turning to `O=C1C[C@]2(CC(O)CO)CC(O1)[C@@H](I)CC21OCCO1` (some centres undefined), the EC50 was over 200 µM and the IC50 is over 200 µM. Take `Cc1ccc(C)c(NC(=O)C(=O)C2C(=O)N(c3ccccc3)N=C2N)c1` (centres undefined): the EC50 was over 708 µM and the IC50 turned out to be 631 µM. In the case of `O=C1CCCc2ccc3c(c21)CC1(Cc2ccccc2C1)C3`, the EC50 was over 200 µM and the IC50 is 25.1 µM. With `CC1(C)[C@@H]2C[C@H]1C(Cc1ccc(C[C@H]3c4cc(-c5ccccn5)ncc4[C@H]4C[C@@H]3C4(C)C)cc1)c1cc(-c3ccccn3)ncc12` (some centres undefined), the EC50 is over 20 µM and the half-maximal inhibitory concentration (IC50) amounted to 0.813 µM.

`CCOCCOCCOCc1nc(C#N)c(N)o1`: the EC50 was over 200 µM and the IC50 is over 200 µM.

For the compound `CCSc1n/c(=C\c2ccco2)c2nncn12`, the EC50 is over 100 µM and the IC50 is over 100 µM. As to `COc1cc2c(cc1O)C(Cc1ccc(Oc3cc(C[C@H]4c5cc(OC)c(OC)cc5CCN4C)ccc3OC)cc1)N(C)CC2` (some centres undefined), the outcome was inactive. As to `Nc1nc(Cl)cc(NCC2(CO)CCCCC2)n1`, the EC50 was over 200 µM and the IC50 was 105 µM. With `Cc1cc(C2(O)C=C(C(C)(C)C)C(=O)C(C(C)(C)C)=C2)c(C)cc1C1(O)C=C(C(C)(C)C)C(=O)C(C(C)(C)C)=C1`, the EC50 is over 151 µM and the IC50 was over 151 µM.

`CC(=Nc1c2ccccc2nc2ccccc12)N(C)C`: the EC50 was over 200 µM and the IC50 was 28.2 µM.

With `Cc1sc2nc(N(C)C)oc(=O)c2c1C`, the EC50 was over 200 µM and the IC50 came to 75.9 µM.

On to `O=C1c2ccccc2C(=O)N1C/C=N/NS(=O)(=O)c1ccc(Cl)cc1`, for which the EC50 was over 95.5 µM and the IC50 is over 95.5 µM. Regarding `CN(C)N1CCOC1=O`, the EC50 was over 200 µM and the IC50 is over 200 µM.

As for `Cc1ccc(NC(=O)OCC(COc2ccc(Cl)cc2)OC(=O)Nc2ccc(C)cc2)cc1` (centres undefined), the EC50 is over 15.5 µM and the IC50 was over 15.5 µM.

As for `CCCOc1ccc2[nH]cc(C(COC)c3c[nH]c4ccc(OCCC)cc34)c2c1`, the EC50 was over 200 µM and the IC50 worked out at 12.9 µM. In the same order, the values of `O=C1c2sccc2[C@H](NC(=O)C(F)(F)F)[C@@H]1Cl` are over 200 µM and over 200 µM. Take `CC1CN1SSN1CC1C` (centres undefined): the EC50 was over 200 µM and the IC50 is 182 µM. Regarding `Cc1cc(NS(=O)(=O)c2ccc(Nc3c4ccccc4nc4c(C(=O)N5CCN(CCOS(C)(=O)=O)CC5)cccc34)cc2)no1`, the EC50 was over 44.7 µM and the IC50 is over 44.7 µM. On to `NC(=O)CCCCC1CCSS1` (centres undefined), for which the EC50 was over 457 µM and the IC50 was over 457 µM. As for `C=CCN1CN(c2ccccc2)C2(CCN(CCCC3(c4ccc(F)cc4)OCCO3)CC2)C1=O`, the EC50 is over 200 µM and the IC50 amounted to 11.5 µM. `N#C/C=C/c1cccc(Br)c1`: the EC50 is over 47.9 µM and the IC50 was over 47.9 µM.

With `CC1OC=CC(=O)C1O` (centres undefined), the result was inactive. As for `COC(=O)C1C2CC3C(OC(=O)C31)C2OC(=O)[C@](OC)(c1ccccc1)C(F)(F)F` (some centres undefined), the EC50 was over 83.2 µM and the IC50 was over 83.2 µM. With `CCOP(=O)(C=C=C1CCC2[C@@H]3CCc4cc(OC)ccc4C3CC[C@]12C)OCC` (some centres undefined), the EC50 was over 200 µM and the IC50 was found to be 2.09 µM. Turning to `COC(=O)C1C(=O)C(C(=O)OC)C23C(C)CCC12C(C(=O)OC)C(=O)C3C(=O)OC` (centres undefined), the EC50 was over 46.8 µM and the IC50 is over 46.8 µM. Take `CCN(C(C)=N)c1ccccc1`: the EC50 was over 295 µM and the IC50 was 67.6 µM.

In the case of `CCN(CC)CCOC(=O)/C=C/c1ccccc1`, the result was inactive. As to `CC(C)(C)c1ccc(OCCOc2ccc(C(C)(C)C)cc2N)c(N)c1`, the EC50 was over 200 µM and the IC50 is over 200 µM. Consider `Cn1c(=O)[nH]n(-c2ccc3ccccc3c2)c1=O`, for which the EC50 is over 200 µM and the IC50 was over 200 µM.

In the case of `CN(N=O)C(=O)N(N)CCCCC(NC(=O)OCc1ccccc1)C(=O)OCc1ccccc1` (centres undefined), the EC50 was over 39.8 µM and the IC50 was over 39.8 µM.

With `CC12CC(C/C1=N/O)C(C)(C)C2` (centres undefined), the EC50 is over 1480 µM and the IC50 was over 1480 µM. In the case of `CCOC(=O)/C(=N/Nc1ccccc1)N1C(=S)C=C(C)NN(C)C1=S`, the EC50 is over 200 µM and the IC50 is over 200 µM.

Consider `COc1ccc(C2CC(c3c(O)ccc4ccccc34)=NN2)cc1OC` (centres undefined), for which the EC50 was over 200 µM and the IC50 came to 5.5 µM. Taken in the same sequence, the figures for `COC(=O)C1(C(=O)OC)Cc2ccc(C)cc2C2=C1C(=O)c1ccccc1C2=O` were over 200 µM and 5.13 µM. Taken in the same sequence, the figures for `CC(C)(C)OC(=O)NCCCCC(NC(=O)C(Cc1c[nH]c2ccccc12)NC(=O)OCC1c2ccccc2-c2ccccc21)C(=O)N1CCCC1C(=O)NCC(N)=O` (centres undefined) (Fmoc-WK(Boc)PG-NH2; configuration not given here) were over 200 µM and over 200 µM. As for `CS(=O)(=O)N/N=C/CN1C(=O)c2ccccc2C1=O`, the EC50 is over 891 µM and the IC50 is over 891 µM. As to `O=[N+]([O-])c1ccc(Oc2ccc(S(=O)(=O)c3ccc(Oc4ccc([N+](=O)[O-])cc4)c([N+](=O)[O-])c3)cc2[N+](=O)[O-])cc1`, the EC50 is over 200 µM and the IC50 is over 200 µM. For `Nc1cc(S(N)(=O)=O)ccc1SSc1ccc(S(N)(=O)=O)cc1N`, the EC50 is 21.4 µM and the IC50 was 63.1 µM.

On to `COc1ccc(/C=N/n2c(C)nc3c(sc(=S)n3-c3ccccc3)c2=O)cc1`, for which the EC50 was over 12.6 µM and the IC50 was over 12.6 µM.

Take `COCC1OC(N2C(=O)NC(=O)[C@@H]3C=C4CCCCC4=C[C@@H]32)C(OC)C1OC` (some centres undefined): the EC50 is over 200 µM and the IC50 is 105 µM. For `O=C(O)CCCNS(=O)(=O)c1ccccc1`, the result was inactive. Take `O=c1[nH]c2ccccc2c(O)c1/C=N/C(=S)NC1CCCCC1`: the EC50 was over 200 µM and the IC50 was over 200 µM. As to `CNC(=O)O/N=C(\C(=N\OC(=O)NC)c1ccccc1)c1ccccc1`, the outcome was inactive. As to `O=C(COc1ccc(OCC(=O)N2C(=O)CC(=O)N(c3ccccc3)C2=S)cc1)N1C(=O)CC(=O)N(c2ccccc2)C1=S`, the EC50 was over 141 µM and the IC50 turned out to be 75.9 µM. Taken in the same sequence, the figures for `Nc1ccc(/C=C\C2(CCl)OCCO2)cc1` were over 100 µM and over 100 µM. Take `CC1CC12OC(=O)N(c1cc(Cl)cc(Cl)c1)C2=O` (centres undefined): the EC50 is over 200 µM and the IC50 stood at 31.6 µM. `COc1c[c]([Hg][O]C(C)=O)c(OC)c(NC(=O)CC(C)=O)[c]1[Hg][O]C(C)=O`: the EC50 was over 0.724 µM and the IC50 is over 0.724 µM. As to `NNc1nncc2n[nH]nc12`, the EC50 is over 200 µM and the IC50 was over 200 µM.

For the compound `COC(=O)CCc1ccc2c(c1)CC1(C2)Cc2ccc(CCC(=O)OC)cc2C1`, the EC50 was over 200 µM and the IC50 was 57.5 µM. Regarding `c1ccc(Cn2cc(CCc3ccncc3)c3ccccc32)cc1`, the EC50 was over 200 µM and the IC50 amounted to 28.2 µM. With `C=C(Br)N(CC)CC`, the EC50 was over 251 µM and the IC50 was over 251 µM. With `COc1ccc(N2C(=O)C(=O)C3(CCCCC3)C2=O)c(OC)c1OC`, the EC50 is over 200 µM and the IC50 is over 200 µM.

For the compound `Oc1cccc(C2SCc3nc4ccccc4n32)c1` (centres undefined), the EC50 is over 126 µM and the IC50 worked out at 46.8 µM.

On to `COc1ccc(/C=C2\N=C(c3ccccc3)OC2=O)c(OCc2ccccc2)c1`, for which the EC50 was over 9.77 µM and the IC50 was over 9.77 µM.

`Cc1nn(C(=O)c2ccc(Cl)cc2)c2c1C(c1ccco1)SC(N)=N2` (centres undefined): the EC50 was 170 µM and the IC50 was over 200 µM.

With `C1CNCCSCCCSCCNC1`, the EC50 is over 200 µM and the IC50 was over 200 µM. As for `COc1cc(C(=O)n2c3ccc(Br)cc3c3nc4ccccc4nc32)cc(OC)c1OC`, the EC50 was over 50.1 µM and the IC50 is over 50.1 µM. Take `O=C1c2ccccc2C(=O)c2c(NCCNC(=O)C3CCCN3)ccc(NCCNC(=O)C3CCCN3)c21` (centres undefined): the EC50 was over 151 µM and the IC50 turned out to be 22.4 µM. Taken in the same sequence, the figures for `CC12CCC(C3NC(=S)NN=C31)C2(C)C` (centres undefined) were over 302 µM and over 302 µM.

On to `O=c1c2ccccc2[se]n1-c1ccc(Cl)cc1`, for which the EC50 is 8.13 µM and the IC50 came out at 23.4 µM. Turning to `O=C(Nc1ccc(Sc2ccc(N=Nc3c(O)c(S(=O)(=O)O)cc4cc(S(=O)(=O)O)ccc34)cc2)cc1)c1ccc(N=Nc2cc(S(=O)(=O)O)c3ccccc3c2O)cc1`, the result was inactive. As to `Cc1ccccc1Nc1nc(NNC(=O)Cc2ccccc2)nc(NNC(=O)c2ccncc2)n1`, the EC50 was 155 µM and the IC50 was 407 µM. With `O=C(OOC(=O)c1ccccc1)c1ccccc1`, the EC50 is over 200 µM and the IC50 was over 200 µM. With `C1=C(c2ccccc2)SC(N2CCCCC2)S1` (centres undefined), the outcome was inactive. `Cc1ccc(NC(=O)C(=O)Cc2cc[n+]([O-])cc2)cc1`: the EC50 was over 47.9 µM and the IC50 is over 47.9 µM. For `C=CCNC(=O)N(CCC)CCCCC(NC(C)=O)C(=O)NCc1ccccc1` (centres undefined), the EC50 was over 89.1 µM and the IC50 was over 89.1 µM. On to `NC(=O)C1=NOC(C(N)=O)C1C1OC(CO)C(O)C1O` (centres undefined), for which the EC50 was over 200 µM and the IC50 is over 200 µM. In the case of `Clc1cccc2[nH]c(-c3ccncc3)nc12`, the EC50 is over 200 µM and the IC50 was over 200 µM. On to `C=CCNC(=S)NC=C(C(N)=O)C(N)=O`, for which the EC50 was over 200 µM and the IC50 is over 200 µM.

By EC50 is commonly meant the concentration at which the effect is half-maximal. As usually defined, the IC50 is the concentration needed to halve the response being measured. A lower IC50 goes with greater potency in that assay.
